Measured values taken from ChEMBL document CHEMBL5550221, “Dual 5-HT2A and 5-HT2C Receptor Inverse Agonist That Affords In Vivo Antipsychotic Efficacy with Minimal hERG Inhibition for the Treatment of Dementia-Related Psychosis” (J Med Chem, 2024).
The source made the active and inactive calls. The calls are words filed in the database; no cut-off is given here.

Legend:
physchem = details: 1-octanol/phosphate buffer, pH 7.4
in vitro [1] = details: rat, liver microsomes
Description: Metabolic stability in rat liver microsomes assessed as compound remaining measured after 30 mins

in vitro [2] = details: human, liver microsomes
Description: Metabolic stability in human liver microsomes assessed as compound remaining measured after 30 mins

[3] = Dissociation constant, pKa of the compound in DMSO solution by capillary electrophoresis; type: physicochemical
Rattus norvegicus [4] = assay: Induction of dialysate dopamine level in male Wistar rat prefrontal cortex at 3 to 10 mg/kg, sc measured upto 120 mins after treatment by microdialysis study; type: functional, organism-based; details: dose 3-10 mg/kg
Rattus norvegicus [5] = assay: Induction of dialysate dopamine level in male Wistar rat prefrontal cortex at 10 mg/kg, sc measured upto 120 mins after treatment by microdialysis study; type: functional, organism-based
Rattus norvegicus [6] = assay: In vivo receptor occupancy at 5-HT2A receptor in sc dosed Wistar rat brain in presence of MDL-100907 non-radiolabeled tracer measured pretreated for 45 mins before MDL-100907 challenge measured after 15 mins; type: functional, organism-based; details: dose 0.1-30 mg/kg, time 60.0 min
Rattus norvegicus [7] = assay: Induction of dialysate dopamine level in male Wistar rat prefrontal cortex at 3 mg/kg, sc measured upto 120 mins after treatment by microdialysis study; type: functional, organism-based
Rattus norvegicus [8] = assay: Induction of dialysate dopamine level in male Wistar rat prefrontal cortex at 30 mg/kg, sc measured upto 120 mins after treatment by microdialysis study; type: functional, organism-based
Rattus norvegicus [9] = assay: Antipsychotic efficacy against MK-801-induced locomotor hyperactivity rat model assessed as reduction in locomotor activity at 30 mg/kg, sc pretreated for 45 mins before MK-801 challenge measured after 15 mins; type: functional, organism-based; details: time 60.0 min

logD (physchem) | remaining at 0.5 h (in vitro [1]) [%] | remaining at 0.5 h (in vitro [2]) [%] | pKa [3] | Structure (SMILES) | Activity (Rattus norvegicus [4]) | Activity (Rattus norvegicus [5]) | Activity (Rattus norvegicus [6]) | Activity (Rattus norvegicus [7]) | Activity (Rattus norvegicus [8]) | Activity (Rattus norvegicus [9])
1.2 | 92 | 102 |  | CCCOc1ccc(CNC(=O)N(Cc2ccn(C)n2)C2CCN(C)CC2)cc1 |  |  |  |  |  | 
3 | 48 | 48 | 8.7 | CC(C)COc1ccc(CNC(=O)N(Cc2ccc(F)cc2)[C@H]2CCN(C)CC23CC3)cc1 |  |  |  |  |  | 
 |  |  |  | Cc1cc2c(cc1Cl)N(C(=O)Nc1ccc(Oc3cccnc3C)nc1)CC2 | Active |  |  |  |  | 
4.9 | 6.1 | 7.9 | 6.2 | CC(C)COc1ccc(CNC(=O)N(Cc2ccc(F)cc2)[C@H]2CCN(C)C[C@@H]2F)cc1 |  |  |  |  |  | 
4 | 27 | 34 | 7.2 | CC(C)COc1ccc(CNC(=O)N(Cc2ccc(F)cc2)[C@H]2CCN(C)C[C@H]2F)cc1 |  |  |  |  |  | 
2.8 | 90 | 89 | 8.4 | CC(C)COc1ccc(CNC(=O)N(Cc2ccc(F)cc2)C2CCN(C)CC2)cc1 [PIMAVANSERIN] |  | inactive | Dose-Dependent Effect | inactive | Active | Active
2.5 | 64 | 68 |  | CC(C)COc1ccc(CNC(=O)N(Cc2ccc(F)cn2)[C@H]2CCN(C)CC23CC3)cc1 |  |  |  |  |  | 
1.7 | 47 | 88 |  | CC(C)COc1ccc(CNC(=O)N(Cc2ccn(C)n2)[C@H]2CCN(C)CC23CC3)cc1 |  |  |  |  |  | 
